In one data set the test system is anesthetized rats. In words: Change of mean arterial blood pressure in anesthetized rats following intravenous administration. It is filed as in vivo, rat. Conditions: 2 mg/kg, in comparison to the same dose of L-threo-DOPS. Here is the method: Change of Mean Arterial Blood Pressure in Anesthetized Rats Following Intravenous Administration of 2 mg/kg L-Threo-2,3-Dideutero POPS in Comparison to the Same Dose of L-Threo-DOPS

The target in data set [1] is T1, monoamine oxidase-A (MAO-A) (Homo sapiens, UniProt P21397).
T1 sequence (P21397 1-527): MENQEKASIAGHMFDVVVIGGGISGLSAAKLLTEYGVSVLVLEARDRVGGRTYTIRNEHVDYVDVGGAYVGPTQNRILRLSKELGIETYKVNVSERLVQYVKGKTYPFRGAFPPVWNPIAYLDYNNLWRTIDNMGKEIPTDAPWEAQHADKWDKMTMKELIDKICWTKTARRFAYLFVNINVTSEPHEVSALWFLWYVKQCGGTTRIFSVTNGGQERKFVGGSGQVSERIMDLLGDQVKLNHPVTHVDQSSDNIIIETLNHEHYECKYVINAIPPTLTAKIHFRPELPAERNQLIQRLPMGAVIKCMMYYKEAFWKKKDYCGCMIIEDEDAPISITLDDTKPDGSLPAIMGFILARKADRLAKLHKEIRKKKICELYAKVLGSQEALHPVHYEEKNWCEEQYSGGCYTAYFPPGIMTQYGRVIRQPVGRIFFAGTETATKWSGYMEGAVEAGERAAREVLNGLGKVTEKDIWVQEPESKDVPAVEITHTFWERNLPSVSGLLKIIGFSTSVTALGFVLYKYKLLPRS
In words: In vitro monoamine oxidase A degradation assay. In kind it is in vitro ADME. Conditions: incubated with MAO-A; compared to non-deuterated norepinephrine; disappearance of norepinephrine tracked. Here is the method: Norepinephrine and d6-norepinephrine were incubated with monoamine oxidase-A (MAO-A).
The appearance of 3,4-dihydroxyphenylglycolaldehyde and the disappearance of norepinephrine were tracked. Compared to non-deuterated norepinephrine, d6-norepinephrine was associated with about a 5-fold decrease in digestion by MAO-A and about a 75% decrease in 3,4-dihydroxyphenylglycolaldehyde production.
The assay method is a batch alumina extraction followed by liquid chromatography with electrochemical detection. The post-column electrodes are arranged in series, with an oxidizing potential at the first electrode and reducing potential at the third. This series arrangement of flow-through electrodes reduces the solvent front substantially and improves the sensitivity and specificity for detecting reversibly oxidized species such as catechols. 3,4-Dihydroxyphenylglycolaldehyde is identified by a broad, short peak within the solvent front.

As to `[2H]C(N)(C(=O)O)C([2H])(O)c1ccc(O)c(O)c1` [L-threo-2,3-dideutero DOPS], the “Change of mean arterial blood pressure” value with anesthetized rats was “enhanced and prolonged increase”.
Regarding `[2H]c1c([2H])c([C@@]([2H])(O)C([2H])([2H])N)c([2H])c(O)c1O` [d6-norepinephrine], the “decrease in digestion by MAO-A” value in data set [1] was about 5 fold.

(Values after patent US20220072131A1, “Dihydroxyphenyl Neurotransmitter Compounds, Compositions And Methods” (Auspex Pharmaceuticals, Inc., priority 2013, published 2022).)
